The results in this text go back to patent US10532985B2, “Heterocycle and carbocycle derivatives having TRKA inhibitory activity” (Shionogi & Co., Ltd., priority 2014, dated 2020).

Some results are limits rather than exact numbers.

T1 sequence (P04629 33-796): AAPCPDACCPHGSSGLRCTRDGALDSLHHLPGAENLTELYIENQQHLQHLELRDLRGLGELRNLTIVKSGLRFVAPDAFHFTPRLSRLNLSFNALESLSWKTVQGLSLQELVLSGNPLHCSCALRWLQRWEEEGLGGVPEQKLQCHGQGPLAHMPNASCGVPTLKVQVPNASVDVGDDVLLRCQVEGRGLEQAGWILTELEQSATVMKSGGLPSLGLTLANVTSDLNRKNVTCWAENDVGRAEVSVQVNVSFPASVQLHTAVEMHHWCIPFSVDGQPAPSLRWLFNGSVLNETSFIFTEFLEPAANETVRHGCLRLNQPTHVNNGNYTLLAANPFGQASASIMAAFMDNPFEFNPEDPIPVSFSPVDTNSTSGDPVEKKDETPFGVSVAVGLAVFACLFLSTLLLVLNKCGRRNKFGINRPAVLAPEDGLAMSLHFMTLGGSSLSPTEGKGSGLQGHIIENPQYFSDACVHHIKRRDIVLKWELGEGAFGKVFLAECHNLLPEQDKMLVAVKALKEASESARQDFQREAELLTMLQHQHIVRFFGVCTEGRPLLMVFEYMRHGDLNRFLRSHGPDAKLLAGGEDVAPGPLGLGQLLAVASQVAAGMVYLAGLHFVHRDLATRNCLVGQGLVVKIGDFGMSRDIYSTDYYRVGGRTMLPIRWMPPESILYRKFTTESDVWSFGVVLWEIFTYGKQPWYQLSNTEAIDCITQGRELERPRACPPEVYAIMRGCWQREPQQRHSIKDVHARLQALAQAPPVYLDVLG

One assay has as its target T1, human TrkA (Homo sapiens, UniProt P04629).
T1 construct: purchased Lifetechnologies PV3144
The assay can be described thus: Test Example 2: Human TrkA Inhibition Assay. The assay is classed as biochemical. The note with it: Test Example 2; human TrkA 2.5 nmol/L, ATP 500 μmol/L, 90 min at room temperature; read-out: TrkA inhibitory activity IC50. Here is the method: After the incubation for 90 min at room temperature, ten μL of termination buffer (100 mmol/L HEPES, 40 mmol/L ethylenediaminetetraacetic acid (EDTA), 10 mmol/L magnesium chloride, 0.003 vol % Brij-35, 0.004 vol % Tween20, 1 mmol/L DTT and 0.16 vol % Coating Reagent 3) was added in each well to stop the enzyme reaction. Fluorescent intensities (FI) of phosphorylated and non-phosphorylated fluorescent substrates were measured by LabChip EZReader II (Caliper LifeSciences, Inc.) and conversion ratio (CR) was calculated by the following formula-1. The CR in the well applied with DMSO alone was used as a negative control and the CR in the well without applying TrkA was used as a positive control. The inhibitory effect of each compound on TrkA phosphorylation was calculated by the following formula-2. CR (%)=(FI of phosphorylated substrate/(FI of phosphorylated substrate+FI of non-phosphorylated substrate))×100 (Formula-1) Inhibitory effect on TrkA phosphorylation (%)=(1−(CR in compound treated well−CR in positive control)/(CR in negative control−CR in positive control))×100. (Formula-2)
Turning to `Cc1c(-c2cnn(C)c2)nn(-c2ccccc2)c1NC(=O)N[C@@H]1CC(=O)C[C@H]1c1ccccc1` (racemic) [Compound I-161], the IC50 was 4.2 µM.
The same measure, in the same setting: under `COCCN1C[C@@H](NC(=NS(C)(=O)=O)Nc2c(C)c(-c3cnn(C)c3)nn2-c2ccccc2)[C@H](c2ccccc2)C1` [Compound I-141] stands 1.1 µM; under `COC1CCC1N1C[C@@H](NC(=O)Nc2c(C)c(-c3cnn(C)c3)nn2-c2ccccc2)[C@H](c2ccc(F)c(F)c2)C1` (some centres unmarked) [Compound I-114], 0.12 µM.
Same read-out and setting: under `COCC(CSC)N1C[C@@H](NC(=O)Nc2c(C)c(-c3cnn(C)c3)nn2-c2ccccc2)[C@H](c2ccc(F)c(F)c2)C1` (some centres unmarked) [Compound I-130] stands 0.46 µM.
On to `Cc1c(-c2cnn(C)c2)nn(-c2ccccc2)c1NC(=O)N[C@@H]1CC(O)C[C@H]1c1ccccc1` (some centres unmarked) [Compound I-168], for which the IC50 was found to be 7 µM.
Same read-out and setting: in the case of `COCCN1C[C@@H](CC(=O)Nc2c(C)c(-c3cnn(C)c3)nn2-c2ccccc2)[C@H](c2ccc(F)c(F)c2)C1` (racemic) [Compound I-15] it was 0.143 µM; in that of `COCCN1C[C@@H](NC(=NO)Nc2c(C)c(-c3cnn(C)c3)nn2-c2ccccc2)[C@H](c2ccccc2)C1` [Compound I-129], 0.44 µM.
On the same count and under the same terms, in the case of `COCC(Cn1cccn1)N1C[C@@H](NC(=O)Nc2c(C)c(-c3cnn(C)c3)nn2-c2ccccc2)[C@H](c2ccc(F)c(F)c2)C1` (some centres unmarked) [Compound I-100] it was 0.034 µM.

Still in this assay, the particulars now being: human TrkA inhibition, Test Example 2; class symbols A/B/C; read-out: IC50_nM.
For the compound `Cc1c(-c2cnn(C)c2)nn(-c2ccccc2)c1NC(=O)N[C@@H]1CN(C2CCOC2)C[C@H]1c1ccc(F)c(F)c1` (some centres unmarked) [Compound I-39], the IC50 was > 1 µM.
`COCC(CNC(N)=O)N1C[C@@H](NC(=O)Nc2c(C)c(-c3cnn(C)c3)nn2-c2ccccc2)[C@H](c2ccc(F)c(F)c2)C1` (some centres unmarked) [Compound I-111]: the IC50 was < 0.1 µM.
`COCC(CNO)N1C[C@@H](NC(=O)Nc2c(C)c(-c3cnn(C)c3)nn2-c2ccccc2)[C@H](c2ccc(F)c(F)c2)C1` (some centres unmarked) [Compound I-92]: the IC50 is < 0.1 µM.
Still for that read-out and setting: under `Cc1c(-c2cnn(C)c2)nn(-c2ccccc2)c1NC(=O)N[C@@H]1CN(CO)C[C@H]1c1ccc(F)c(F)c1` (racemic) [Compound I-67] stands > 1 µM; under `COCCN1C[C@@H](NC(=O)Nc2c(C)c(-c3cnn(C)c3)nn2-c2ccccc2)[C@H](c2ccc3ccccc3c2)C1` (racemic) [Compound I-104], < 0.1 µM; under `Cc1c(-c2cnn(C)c2)nn(-c2ccccc2)c1NC(=O)N[C@@H]1CN(Cc2nccn2C)C[C@H]1c1ccc(F)c(F)c1` [Compound I-159], > 1 µM.
For `COCCN1C[C@@H](NC(=NOC)Nc2c(C)c(-c3cnn(C)c3)nn2-c2ccccc2)[C@H](c2ccccc2)C1` [Compound I-144], the IC50 is > 1 µM.
On to `Cc1c(-c2cnn(C)c2)nn(-c2ccccc2)c1NC(=O)N[C@@H]1CC(C)C[C@H]1c1ccccc1` (some centres unmarked) [Compound I-36], for which the IC50 is < 0.1 µM.
Same read-out and setting: in the case of `COCC(Cn1ccnc1)N1C[C@@H](NC(=O)Nc2c(C)c(-c3cnn(C)c3)nn2-c2ccccc2)[C@H](c2ccc(F)c(F)c2)C1` (some centres unmarked) [Compound I-127] it was 0.1 to 1 µM; in that of `Cc1c(-c2cnn(C)c2)nn(-c2ccccc2)c1NC(=O)N[C@@H]1CN(CCc2ccccc2)C[C@H]1c1ccc(F)c(F)c1` [Compound I-62], > 1 µM.
Turning to `Cc1c(-c2cnn(C)c2)nn(-c2ccccc2)c1NC(=O)N[C@@H]1CN(Cc2ccoc2)C[C@H]1c1ccc(F)c(F)c1` [Compound I-118], the IC50 was in the range of 0.1 to 1 µM.
Consider `Cc1c(-c2cnn(C)c2)nn(-c2ccccc2)c1NC(=O)N[C@@H]1CN(CCNC(=O)C(F)(F)F)C[C@H]1c1ccc(F)c(F)c1` [Compound I-72], for which the IC50 was > 1 µM.
Same read-out and setting: under `COCCN1C[C@@H](NC(=O)Nc2c(C)c(-c3cnn(C)c3)nn2-c2ccccc2)[C@H](C2CCC(F)(F)CC2)C1` (racemic) [Compound I-33] stands 0.1 to 1 µM.
Still for that read-out and setting: under `COCC(CN1CCC1)N1C[C@@H](NC(=O)Nc2c(C)c(-c3cnn(C)c3)nn2-c2ccccc2)[C@H](c2ccc(F)c(F)c2)C1` (some centres unmarked) [Compound I-119] stands 0.1 to 1 µM; under `Cc1c(-c2cnn(C)c2)nn(-c2ccccc2)c1NC(=O)N[C@@H]1CN(C2COC2)C[C@H]1c1ccc(F)c(F)c1` [Compound I-37], 0.1 to 1 µM.
`Cc1c(-c2cnn(C)c2)nn(-c2ccccc2)c1NC(=O)N[C@@H]1CN(CCOc2ccccc2)C[C@H]1c1ccc(F)c(F)c1` [Compound I-23]: the IC50 lay within 0.1 to 1 µM.
Still for that read-out and setting: under `COCC(CN)N1C[C@@H](NC(=O)Nc2c(C)c(-c3cnn(C)c3)nn2-c2ccccc2)[C@H](c2ccc(F)c(F)c2)C1` (some centres unmarked) [Compound I-131] stands 0.1 to 1 µM; under `Cc1c(-c2cnn(C)c2)nn(-c2ccccc2)c1NC(=O)N[C@@H]1CN(Cc2ccc(C#N)o2)C[C@H]1c1ccc(F)c(F)c1` [Compound I-89], < 0.1 µM.
Take `COCCN1C[C@@H](NC(=O)Nc2c(C)c(-c3cnn(C)c3)nn2-c2ccccc2)[C@H](c2cccc(N(C)C)c2)C1` (racemic) [Compound I-171]: the IC50 was > 1 µM.
Same read-out and setting: in the case of `Cc1c(-c2cnn(C)c2)nn(-c2ccccc2)c1NC(=O)N[C@@H]1CN(CC2CC2)C[C@H]1c1ccc(F)c(F)c1` [Compound I-66] it was 0.1 to 1 µM.
Still for that read-out and setting: in the case of `COCCN1C[C@@H](NC(=O)Nc2c(C)c(-c3cnn(C)c3)nn2-c2ccccc2)[C@@]2(CCc3ccccc32)C1` (racemic) [Compound I-7] it was > 1 µM; in that of `COCCN1C[C@@H](NC(=O)Nc2c(C)c(-c3cnn(C)c3)nn2-c2ccccc2)[C@H](c2cccc(-c3ccoc3)c2)C1` (racemic) [Compound I-51], < 0.1 µM.
For `CCN1[C@@H]2CC[C@H]1[C@@H](c1ccc(F)c(F)c1)[C@@H]2NC(=O)Nc1c(C)c(-c2cnn(C)c2)nn1-c1ccccc1` (racemic) [Compound I-69], the IC50 is > 1 µM.
On the same count and under the same terms, under `Cc1c(-c2cnn(C)c2)nn(-c2ccccc2)c1NC(=O)N[C@@H]1CN(C(C)c2ccco2)C[C@H]1c1ccc(F)c(F)c1` (some centres unmarked) [Compound I-101] stands < 0.1 µM.
On the same count and under the same terms, in the case of `COCCN1C[C@@H](NC(=O)Nc2c(C)c(-c3cnn(C)c3)nn2-c2ccccc2)[C@H](c2cccc(-c3ccccc3C#N)c2)C1` (racemic) [Compound I-55] it was 0.1 to 1 µM; in that of `CC(=O)NCCN1C[C@@H](NC(=O)Nc2c(C)c(-c3cnn(C)c3)nn2-c2ccccc2)[C@H](c2ccc(F)c(F)c2)C1` [Compound I-40], > 1 µM.
Still for that read-out and setting: in the case of `Cc1c(-c2cnn(C)c2)nn(-c2ccccc2)c1NC(=O)N[C@@H]1CN(C2CCC2)C[C@H]1c1ccc(F)c(F)c1` [Compound I-125] it was 0.1 to 1 µM; in that of `Cc1c(-c2cnn(C)c2)nn(-c2ccccc2)c1NC(=O)N[C@@H]1CN(Cc2ccon2)C[C@H]1c1ccc(F)c(F)c1` [Compound I-98], < 0.1 µM.
As for `COCCN1[C@@H]2CC[C@H]1[C@@H](c1ccc(F)c(F)c1)[C@@H]2NC(=O)Nc1c(C)c(-c2cnn(C)c2)nn1-c1ccccc1` (racemic) [Compound I-30], the IC50 is > 1 µM.
As to `COCCN1C[C@@H](NC(=O)Nc2c(C)c(-c3cnn(C)c3)nn2-c2ccccc2)[C@H](c2cccc(-c3ccc(C(=O)OC)cc3)c2)C1` (racemic) [Compound I-54], the IC50 was > 1 µM.
Still for that read-out and setting: under `Cc1c(-c2cnn(C)c2)nn(-c2ccccc2)c1NC(=O)N[C@@H]1CC(C)(O)C[C@H]1c1ccccc1` (some centres unmarked) [Compound I-154] stands > 1 µM; under `CNCC(COC)N1C[C@@H](NC(=O)Nc2c(C)c(-c3cnn(C)c3)nn2-c2ccccc2)[C@H](c2ccc(F)c(F)c2)C1` (some centres unmarked) [Compound I-138], 0.1 to 1 µM; under `COCOCCN1C[C@@H](NC(=O)Nc2c(C)c(-c3cnn(C)c3)nn2-c2ccccc2)[C@H](c2ccc(F)c(F)c2)C1` [Compound I-80], 0.1 to 1 µM.
As for `Cc1c(-c2cnn(C)c2)nn(-c2ccccc2)c1NC(=O)N[C@@H]1CN(C#N)C[C@H]1c1ccc(F)c(F)c1` [Compound I-173], the IC50 was > 1 µM.
The same measure, in the same setting: in the case of `Cc1c(-c2cnn(C)c2)nn(-c2ccccc2)c1NC(=O)N[C@@H]1C[C@@H](C)N(C)[C@H]1c1ccc(F)c(F)c1` (racemic) [I 78] it was > 1 µM; in that of `Cc1c(-c2cnn(C)c2)nn(-c2ccccc2)c1NC(=O)N[C@@H]1CCC[C@H]1c1ccccc1` (racemic) [Compound I-13], > 1 µM.
For the compound `Cc1c(-c2cnn(C)c2)nn(-c2ccccc2)c1NC(=O)N[C@@H]1CN(CCCS(C)(=O)=O)C[C@H]1c1ccc(F)c(F)c1` [Compound I-64], the IC50 was > 1 µM.
Same read-out and setting: under `Cc1c(-c2cnn(C)c2)nn(-c2ccccc2)c1NC(=O)N[C@@H]1CN(c2nnn(C)n2)C[C@H]1c1ccc(F)c(F)c1` [Compound I-151] stands > 1 µM.
On to `Cc1c(-c2cnn(C)c2)nn(-c2ccccc2)c1NC(=O)N[C@@H]1CN(CCCc2ccccc2)C[C@H]1c1ccc(F)c(F)c1` [I 63], for which the IC50 is > 1 µM.
On to `COCC(CCO)N1C[C@@H](NC(=O)Nc2c(C)c(-c3cnn(C)c3)nn2-c2ccccc2)[C@H](c2ccc(F)c(F)c2)C1` (some centres unmarked) [Compound I-105], for which the IC50 was < 0.1 µM.
In the case of `Cc1c(-c2cnn(C)c2)nn(-c2ccccc2)c1NC(=O)N[C@@H]1C[C@@H](C)N[C@H]1c1ccc(F)c(F)c1` (racemic) [Compound I-77], the IC50 is > 1 µM.
`CCC1C[C@@H](NC(=O)Nc2c(C)c(-c3cnn(C)c3)nn2-c2ccccc2)[C@H](c2ccccc2)C1` (some centres unmarked) [Compound I-103]: the IC50 is < 0.1 µM.
